Laboratory results from patent US20260116910A1, “POLYCYCLIC COMPOUNDS AND METHODS THEREOF” (HEPAITECH (BEIJING) BIOPHARMA TECHNOLOGY CO., LTD., priority 2021, published 2026).
Like-named read-outs stand apart in the source and are kept apart here.

Target: T1, human FXR (NR1H4) (Homo sapiens, UniProt Q96RI1)
T1 sequence (Q96RI1 1-476 isoform Q96RI1-1): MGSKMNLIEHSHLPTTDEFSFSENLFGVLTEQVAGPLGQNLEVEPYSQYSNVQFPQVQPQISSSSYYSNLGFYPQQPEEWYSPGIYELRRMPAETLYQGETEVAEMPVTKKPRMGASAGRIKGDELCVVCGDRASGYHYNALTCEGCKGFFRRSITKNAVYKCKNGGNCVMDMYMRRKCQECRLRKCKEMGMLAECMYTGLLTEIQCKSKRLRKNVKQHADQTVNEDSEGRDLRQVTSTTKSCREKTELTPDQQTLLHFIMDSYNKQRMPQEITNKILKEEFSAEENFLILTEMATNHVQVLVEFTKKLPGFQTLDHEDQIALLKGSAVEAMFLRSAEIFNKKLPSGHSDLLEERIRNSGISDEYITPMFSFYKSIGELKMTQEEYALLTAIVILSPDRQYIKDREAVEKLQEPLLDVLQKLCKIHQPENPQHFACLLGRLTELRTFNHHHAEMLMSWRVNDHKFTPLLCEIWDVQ
Assay: Human FXR (NR1H4) agonist assessment, FXRE-NanoLuc reporter in HEK293T cells
Format: cell-based
Settings: for EC50: read-out: EC50
Protocol: As those skilled in the art appreciate, various technologies are available for assessment of FXR activation in accordance with the present disclosure. […] Human FXR (NR1H4) agonist assessment (see, e.g., Yu et al. eLife 2019; 8: e48431): HEK293T cells stably expressing human FXR and containing FXR response element (FXRE)-NanoLuc reporter were cultured in DMEM medium supplemented with 10% FBS and 1% PS, at 37° C. in a humidified atmosphere with 5% CO2. Cells were detached by centrifuging (1000 rpm, 3 min). The pellet was re-suspended in medium, and cell density was adjusted to about 1×10^6 cells/mL. 100 μL suspension was seeded to each well of a white-walled, clear-bottom 96-well microplates (cell plate). Cells in microplates were cultured overnight.
In the following day, cells were grown to higher than 95% density in each well. Culture medium was replaced, and compounds were added to the wells. 0.01% DMSO (v/v) served as negative control. Plates were incubated at 37° C. in 5% CO2 for 24 hr.
In the following day, a 10 μL aliquot of cell culture medium was removed from each well and combined with 40 μL culture medium plus […] assay buffer (containing 20 mM of the luciferase substrate coelenterazine). After 5 min incubation, luminescence was measured using an EnVision plate reader (PerkinElmer).
In some embodiments, gradient diluted solutions of several concentrations were used to treat cells and corresponding responses were used to fit sigmoid function and to derive EC50 in Origin.

[1] = FXR activation, HEK293T FXRE-NanoLuc reporter, 24 hr

Row | SMILES | Efficacy (maximum measured induction of NanoLuc, normalized to CDCA set as 100%) [1] | EC50 [1] [nM] | Efficacy (maximum measured induction of NanoLuc, normalized to CDCA set as 100%)
1 | CC[C@H]1[C@@H](O)[C@@H]2[C@H](CC[C@]3(C)[C@@H]([C@H](C)CCN)CC[C@@H]23)[C@@]2(C)CCC(F)(F)C[C@@H]12 [11-1] | C (100%<efficacy <=300%) | > 10000 | 
2 | CC[C@H]1[C@@H](O)[C@@H]2[C@H](CC[C@]3(C)[C@@H]([C@H](C)CCc4nnc(C(C)C)s4)CC[C@@H]23)[C@@]2(C)CCCC[C@@H]12 [15-1] | B (300%<efficacy <=400%) | 1000 to 10000 | 
3 | CC[C@H]1[C@@H](O)[C@@H]2[C@H](CC[C@]3(C)[C@@H]([C@H](C)CCc4nnc(N)[nH]4)CC[C@@H]23)[C@@]2(C)CCCC[C@@H]12 [15-2] | C (100%<efficacy <=300%) | < 1000 | 
4 | CC[C@H]1[C@@H](O)[C@@H]2[C@H](CC[C@]3(C)[C@@H]([C@H](C)CCc4nnc(NS(=O)(=O)c5ccc6c(c5)OCO6)[nH]4)CC[C@@H]23)[C@@]2(C)CCCC[C@@H]12 [15-3] | C (100%<efficacy <=300%) | 1000 to 10000 | 
5 | CC[C@H]1[C@@H](O)[C@@H]2[C@H](CC[C@]3(C)[C@@H]([C@H](C)CCC(=O)Nc4nnn[nH]4)CC[C@@H]23)[C@@]2(C)CCCC[C@@H]12 [16-1] |  | 1000 to 10000 | B (key: A: efficacy >400%; B: 300%<efficacy <=400%; C: 100%<efficacy <=300%; D: efficacy <=100%)
6 | CC[C@H]1[C@@H](O)[C@@H]2[C@H](CC[C@]3(C)[C@@H]([C@H](C)Cc4nnn[nH]4)CC[C@@H]23)[C@@]2(C)CCCC[C@@H]12 [16-2] | C (100%<efficacy <=300%) | < 1000 | 
7 | CC[C@H]1[C@@H](O)[C@@H]2[C@H](CC[C@]3(C)[C@@H]([C@H](C)CCNC(=N)N)CC[C@@H]23)[C@@]2(C)CCCC[C@@H]12 [17-1] | A (efficacy >400%) | < 1000 | 
8 | CC[C@H]1[C@@H](O)[C@@H]2[C@H](CC[C@]3(C)[C@@H]([C@H](C)CCNC(=N)NS(=O)(=O)c4cccs4)CC[C@@H]23)[C@@]2(C)CCCC[C@@H]12 [17-2] | B (300%<efficacy <=400%) | < 1000 | 
9 | CC[C@H]1[C@@H](O)[C@@H]2[C@H](CC[C@]3(C)[C@@H]([C@H](C)CCOC(=O)NS(=O)(=O)c4ccc5c(c4)CCC(C)(C)O5)CC[C@@H]23)[C@@]2(C)CCCC[C@@H]12 [19-1] | B (300%<efficacy <=400%) | < 1000 | 
10 | CC[C@H]1[C@@H](O)[C@@H]2[C@H](CC[C@]3(C)[C@@H]([C@H](C)CCOC(=O)NS(=O)(=O)c4ccc(N5CCCCC5)nc4)CC[C@@H]23)[C@@]2(C)CCCC[C@@H]12 [19-2] | B (300%<efficacy <=400%) | < 1000 | 
11 | CC[C@H]1[C@@H](O)[C@@H]2[C@H](CC[C@]3(C)[C@@H]([C@H](C)CCOC(=O)NS(=O)(=O)c4ccc(C(C)(C)CF)cc4)CC[C@@H]23)[C@@]2(C)CCCC[C@@H]12 [19-3] | A (efficacy >400%) | < 1000 | 
12 | C[C@H](CCNC(=O)NS(=O)(=O)c1ccc(C(C)(C)CF)cc1)[C@H]1CC[C@H]2[C@@H]3CC[C@@H]4CCCC[C@]4(C)[C@H]3CC[C@]12C [21-1] |  | 1000 to 10000 | B (key: A: efficacy >400%; B: 300%<efficacy <=400%; C: 100%<efficacy <=300%; D: efficacy <=100%)
13 | C[C@H](CCCOC(=O)NS(=O)(=O)c1ccc(C(C)(C)CF)cc1)[C@H]1CC[C@H]2[C@@H]3CC[C@@H]4CCCC[C@]4(C)[C@H]3CC[C@]12C [22-1] |  | 1000 to 10000 | B (key: A: efficacy >400%; B: 300%<efficacy <=400%; C: 100%<efficacy <=300%; D: efficacy <=100%)
14 | C[C@H](CNC(=O)NS(=O)(=O)c1ccc(C(C)(C)CF)cc1)[C@H]1CC[C@H]2[C@@H]3CC[C@@H]4CCCC[C@]4(C)[C@H]3CC[C@]12C [23-1] | B (300%<efficacy <=400%) | 1000 to 10000 | 
